Assay [1] relates to JH2 pseudokinase domain of TYK2. Conditions: background statement; cited from earlier work.
Assay [2] concerns the target Ba/F3-FL-TYK2-E957D cells (Homo sapiens, UniProt P29597, E957D, cells depend on it). In words: Proliferation of Ba/F3-FL-TYK2-E957D cells (CellTiter-Glo). Conditions: 72 hours, read-out: Half maximal inhibitory concentration IC50 for cells Ba/F3-FL-TYK2-E957D. Format: cell-based, mouse. The source says: (§1) Adenosine triphosphate (ATP) serves as a universal energy carrier in various life processes, representing the smallest unit of energy storage and transfer. The CellTiter-Glo™ Luminescent Cell Viability Assay Kit utilizes luciferase as a detection agent. During the luminescent process, luciferase requires the participation of ATP. By adding CellTiter-Glo™ reagent to the cell culture medium and measuring the luminescence, the light signal was directly proportional to the amount of ATP in the system, and ATP was positively correlated with the number of viable cells. Therefore, cell proliferation can be detected by measuring ATP content using the CellTiter-Glo kit. In this test, the cell lines used were Ba/F3-FL-TYK2-E957D and Ba/F3-TEL-TYK2. Ba/F3-FL-TYK2-E957D cells can stably express the exogenously introduced human TYK2-E957D gene, and the TYK2-E957D gene sequence contains both JH1 and JH2 domains. On the other hand, Ba/F3-TEL-TYK2 cells can stably express the exogenously introduced human TEL-TYK2 gene, and the TEL-TYK2 gene sequence contains only the JH1 domain of TYK2.
(§2) The cell lines were cultured in an incubator at 37° C. with 5% CO2. Regular passaging was performed, and cells in the logarithmic growth phase were selected for plating.
(§3) • a) The test compounds were prepared into a 10 mM solution with DMSO, and then diluted to 0.3 or 1 mM with DMSO. • b) Preparation of 1000× compound storage plate (tube): The compounds were 3-fold serially diluted from the highest concentration to the lowest concentration, creating 9 different concentrations. • c) Preparation of 20× compound working solution: 49 μL of cell culture medium was added to a flat-bottomed 96-well transparent drug plate. From the 1000× compound storage plate, 1 μL of the compound was pipetted into the cell culture medium in the 96-well transparent drug plate. In the solvent control, 1 μL of DMSO was added. After the compound or DMSO was added, the mixture was homogenized using a multi-channel pipette.
(§4) • a) Cells were stained with trypan blue and viable cells were counted to ensure a cell viability of 90% or more. • b) 95 μL of cell suspension (2000 cells/well) was added to each well of the compound assay cell plate, and cell-free culture medium containing 0.1% DMSO was added to the Min control wells. • c) Administration in the compound assay cell plate: 5 μL of 20× compound working solution was added to the cell culture plate. 5 μL of DMSO-cell culture medium mixture was added to the Max control wells. The final concentration of DMSO was 0.1%. • d) The culture plate was then incubated in an incubator at 37° C. with 5% CO2 for 72 hours.
(§5) The following steps were conducted in accordance with the instructions of the Promega CellTiter-Glo Luminescent Cell Viability Assay Kit (Promega-G7573). • a) CellTiter-Glo buffer was thawed and brought to room temperature. • b) CellTiter-Glo substrate was also brought to room temperature. • c) CellTiter-Glo buffer was added to a bottle of CellTiter-Glo substrate to dissolve the substrate, thereby preparing CellTiter-Glo working solution. • d) The mixture was slowly vortexed and shaken to be fully dissolved. • e) The cell culture plate was removed and allowed to equilibrate to room temperature for 10 minutes. • f) 50 μL (equal to half the volume of cell culture medium in each well) of CellTiter-Glo working solution was added to each well. • g) The culture plate was shaken on an orbital shaker for 2 minutes to induce cell lysis. • h) The plate was then left at room temperature for 10 minutes to stabilize the luminescent signal. • i) The luminescent signal was detected using a SpectraMax Paradigm plate reader.
(§6) Data analysis was conducted using GraphPad Prism 5.0 software. Nonlinear S-curve regression was employed to fit the data and generate dose-response curves. From these curves, the IC50 values were calculated.

In the next assay the test system is Ba/F3-TEL-TYK2 cells. In words: Proliferation of Ba/F3-TEL-TYK2 cells (CellTiter-Glo). The assay is classed as cell-based. Conditions: 72 hours, read-out: Half maximal inhibitory concentration IC50 for cells Ba/F3-TEL-TYK2.
Excerpt: as §1, §2, §3, §4, §5, §6

The test system of assay [3] is TYK2 signaling pathway (IFN-α/pSTAT1). In words: IFN-α-induced STAT1 phosphorylation in mouse whole blood. Format: cell-based. Conditions: CD3+ cells. As to the method:
The purpose of this experiment was to detect the inhibitory effect of the compound on the JAK-STAT signaling pathway activated by IFN-α in mouse whole blood. Fresh mouse whole blood was collected and placed in a 96-well plate. The test compound was added and incubated for 1 hour, followed by stimulation with IFN-α. The corresponding STAT1 phosphorylation level in the CD3^+ cell population was analyzed using flow cytometer by means of surface antibody staining and intracellular phosphorylated antibody staining. The IFN-α-induced STAT1 phosphorylation in mouse whole blood is dependent on TYK2 activity. By detecting the inhibitory activity of the compound on downstream […] phosphorylation, the half maximal inhibitory concentration (IC50) of the compound on TYK2 signaling pathway activity can be determined.
• a) The compound was prepared into a 10 mM solution with dimethyl sulfoxide (DMSO), and diluted in DMSO to a solution with various concentrations, 500 times the final concentration. • b) 5 μL of the diluted compound was transferred to 120 μL of phosphate buffered saline (PBS) containing 0.1% bovine serum albumin (BSA). • c) Positive and negative control groups were set up, with both finally containing 0.2% DMSO.
• a) 67.5 μL of mouse whole blood was added to each well of a 96-well cell culture plate. • b) 3.5 μL of the diluted compound was added thereto and mixed thoroughly. • c) The plate was incubated in a 37° C. incubator for 60 minutes. • d) Mouse interferon recombinant protein was diluted 125-fold in PBS containing 0.1% BSA, and anti-mouse CD3 antibody was diluted 5-fold in PBS containing 0.1% BSA. 5 μL of diluted anti-mouse CD3 antibody and 4 μL of diluted mouse interferon recombinant protein were added to each well. • e) The plate was incubated in a 37° C. incubator for 30 minutes. • f) All cells were transferred to a 96-well deep well plate, and 1 mL of 37° C. pre-warmed 1× lysis/fixation buffer was added thereto. • g) The cells were incubated in the dark at 37° C. for 10 minutes. • h) After centrifugation at 600 g for 5 minutes, the supernatant was discarded, and the cells were washed twice with 1 mL of PBS by centrifugation. • i) 0.4 mL per well of permeabilization buffer was added to the cell pellet and mixed thoroughly. The cells were incubated in the dark at 4° C. for 30 minutes. • j) After centrifugation at 600 g for 5 minutes, the supernatant was discarded, and the cells were washed twice with 1 mL of flow cytometry staining buffer (PBS+0.2% BSA+1 mM EDTA) by centrifugation. • k) Anti-STAT1 antibody was diluted 65-fold in flow cytometry staining buffer, and added to cell-containing wells at 100 μL per well and mixed thoroughly. • l) The cells were incubated at room temperature for 40 minutes. • m) 1 mL per well of flow cytometry staining buffer was added, and the cells were washed twice by centrifugation at 600 g for 5 minutes. • n) The supernatant was discarded, and the cell pellet was resuspended in 300 μL of flow cytometry staining buffer. • o) The samples were loaded for analysis using the Beckman CytoFlex flow cytometer.
Data were analyzed using FlowJo software. Curve fitting was performed and the IC50 was calculated using GraphPad Prism 8 software.

Bounds are passed on as bounds.

Sequence of Ba/F3-FL-TYK2-E957D cells (P29597 whole entry E957D): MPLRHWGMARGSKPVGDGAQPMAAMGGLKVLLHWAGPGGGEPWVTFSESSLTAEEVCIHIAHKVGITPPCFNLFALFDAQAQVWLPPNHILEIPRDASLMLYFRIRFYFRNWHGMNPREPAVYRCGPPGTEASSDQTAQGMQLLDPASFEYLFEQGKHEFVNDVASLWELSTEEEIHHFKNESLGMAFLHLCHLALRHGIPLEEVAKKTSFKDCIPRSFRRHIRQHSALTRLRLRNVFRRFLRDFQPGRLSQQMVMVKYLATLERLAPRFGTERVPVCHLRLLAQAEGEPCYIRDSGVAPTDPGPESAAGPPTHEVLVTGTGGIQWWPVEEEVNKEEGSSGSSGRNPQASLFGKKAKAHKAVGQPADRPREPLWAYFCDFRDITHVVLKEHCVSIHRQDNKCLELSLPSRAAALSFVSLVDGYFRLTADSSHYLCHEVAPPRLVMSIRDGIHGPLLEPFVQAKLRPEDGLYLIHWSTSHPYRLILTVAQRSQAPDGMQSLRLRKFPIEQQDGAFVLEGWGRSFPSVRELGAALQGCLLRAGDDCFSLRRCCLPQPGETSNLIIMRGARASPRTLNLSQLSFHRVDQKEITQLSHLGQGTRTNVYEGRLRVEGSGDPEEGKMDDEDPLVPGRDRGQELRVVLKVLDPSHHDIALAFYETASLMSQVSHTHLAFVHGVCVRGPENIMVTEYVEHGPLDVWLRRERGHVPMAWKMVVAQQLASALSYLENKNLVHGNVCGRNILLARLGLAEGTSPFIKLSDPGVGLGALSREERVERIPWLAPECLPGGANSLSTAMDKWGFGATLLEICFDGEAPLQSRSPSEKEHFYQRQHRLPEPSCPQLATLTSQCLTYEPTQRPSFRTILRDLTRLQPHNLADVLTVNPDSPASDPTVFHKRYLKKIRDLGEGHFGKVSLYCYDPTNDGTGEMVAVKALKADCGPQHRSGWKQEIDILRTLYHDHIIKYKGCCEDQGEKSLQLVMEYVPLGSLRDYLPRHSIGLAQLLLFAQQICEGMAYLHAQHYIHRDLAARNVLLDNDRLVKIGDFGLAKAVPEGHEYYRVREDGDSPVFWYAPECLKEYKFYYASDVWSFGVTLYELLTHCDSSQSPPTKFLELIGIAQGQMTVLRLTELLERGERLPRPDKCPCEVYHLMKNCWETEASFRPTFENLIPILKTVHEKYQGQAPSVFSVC

Regarding `[2H]C([2H])([2H])NC(=O)c1nnc(NC(=O)C2CC2)cc1Nc1cccc(-c2ncn(C)n2)c1OC` [BMS-986165], in assay [1], the kinase selectivity is above 1000 fold.

On to `COc1c(Nc2cc(NC(=O)C3CC3)ncc2C(N)=O)cccc1-c1ccc(S(=O)(=O)C(C)C)cn1` [Trifluoroacetate of WX-034], for which the GI50 in assay [2] turned out to be 0.0001 µM. The IC50 in the assay with Ba/F3-TEL-TYK2 cells is above 10 µM; in assay [3] it was 0.0932 µM.

Consider `COc1c(Nc2cc(NC(=O)C3CC3)ncc2C(N)=O)cccc1-c1ncc(S(=O)(=O)C(C)C)cn1` [WX-033], for which the GI50 in assay [2] came to 0.0001 µM. In addition, the IC50 with Ba/F3-TEL-TYK2 cells is above 10 µM; in assay [3] it was 0.316 µM.
